As usually defined, the MIC is the lowest concentration found to suppress growth. Usually IC50 stands for the point on the concentration scale where inhibition reaches its midpoint.

Data on 1 compound can be found in US8624034B2, “Fluoro-pyridinone derivatives useful as antibacterial agents” (Pfizer Inc., priority 2011, dated 2014).

Converted amounts (≈) assume the structure as drawn. Some results are limits rather than exact numbers.

Assay [1] relates to Acinetobacter baumannii/haemolyticus, multidrug-resistant clinical isolate (AB-3167). Briefly: MIC determination, AB-3167. Format: cell-based. The following applies: Table 2, lower of duplicate values. A digest of the protocol:
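MIC read visually after overnight growth across 2-fold concentration steps in the CLSI dilution method against the multidrug-resistant clinical isolate. Duplicate determinations, lower value reported when within 2-fold, otherwise repeated; every run checked with control organisms and reference drugs.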

The subject of assay [2] is Pseudomonas aeruginosa UI-18: wild-type (PA-7). Briefly: MIC determination, PA-7. Particulars: Table 2, lower of duplicate values. Format: cell-based. Put shortly:
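P. aeruginosa UI-18 (wild-type) tested by CLSI broth dilution (M7-A8), 2-fold compound series incubated overnight. MIC read visually as lowest concentration preventing growth versus drug-free control; duplicates within 2-fold, lower value reported, with QC organisms and reference compounds in range.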

For assay [3], the target named is T1, Pseudomonas aeruginosa LpxC enzyme (Pseudomonas aeruginosa, UniProt P47205).
T1 construct: made in house; host or cells: E. coli
T1 sequence (P47205 1-303): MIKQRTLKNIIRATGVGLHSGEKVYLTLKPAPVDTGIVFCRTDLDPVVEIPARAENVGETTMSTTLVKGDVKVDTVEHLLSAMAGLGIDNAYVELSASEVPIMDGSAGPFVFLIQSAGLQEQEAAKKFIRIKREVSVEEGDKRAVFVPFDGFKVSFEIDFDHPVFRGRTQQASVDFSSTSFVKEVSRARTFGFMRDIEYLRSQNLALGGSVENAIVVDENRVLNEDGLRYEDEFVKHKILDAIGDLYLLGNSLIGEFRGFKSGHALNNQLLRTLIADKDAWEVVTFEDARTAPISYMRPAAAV
Briefly: IC50 assay, LpxC enzyme from P. aeruginosa (PA LpxC enzyme IC50). In kind it is biochemical. The following applies: Table 2; LpxC enzyme 0.1 nM, 25° C., 1 hour; read-out: PA:IC50. Put shortly: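 IC50 values came from percent conversion, referenced to a no-enzyme control. Conversion was read by RapidFire HTMS mass spectrometry after HCl quench of the 1 h enzyme reaction.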

The test system of assay [4] is Escherichia coli EC-1: VOGEL, mouse virulent. Briefly: MIC determination, EC-1. Format: cell-based. Particulars: Escherichia coli, read-out: EC-1 (MIC), Table 2, lower of duplicate values. A digest of the protocol:
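Duplicate runs differing by more than 2-fold were repeated, and otherwise the lower MIC was kept. The test organism was E. coli EC-1 (VOGEL, mouse virulent), incubated overnight across 2-fold compound dilutions following CLSI guidelines. The MIC was read visually as the lowest concentration inhibiting growth relative to drug-free control.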

Take `Cc1cccc(-c2cc(=O)n(CC[C@](C)(C(=O)NO)S(C)(=O)=O)cc2F)c1F` [Example 2, (2R)-4-[5-Fluoro-4-(2-fluoro-3-methylphenyl)-2-oxopyridin-1(2H)-yl]-N-hydroxy-2-methyl-2-(methylsulfonyl)butanamide]: the results for the MIC in assay [1], in assay [2] and in assay [4] were more than 64 µg/mL, 0.25 µg/mL (≈ 0.603 µM) and 0.25 µg/mL (≈ 0.603 µM), respectively. Further, in assay [3], the IC50 was determined as 0.595 nM.
